3 compounds from publication PMC8745369, “Discovery of 2,4-thiazolidinedione-tethered coumarins as novel selective inhibitors for carbonic anhydrase IX and XII isoforms” (Journal of Enzyme Inhibition and Medicinal Chemistry, 2022) can be followed below.

SMILES strings stand for the structures. Like-named read-outs stand apart in the source and are kept apart here.

Series [1] relates to MCF-7 breast cancer cells. Nature of the series: Annexin V-FITC/propidium iodide apoptosis assay. In kind it is cell-based, human. The settings on record: treatment at IC50. From the text:
[…]. This represents 57 folds total increase relative to the control in apoptotic cells.
IC50 values (concentration of sample
4. Annexin V-FITC Apoptosis Assay
Cells were then rinsed in binding

Series [2] has as its system MCF-7 breast cancer cells. Description: Cell cycle analysis by flow cytometry.
The target in another series is hCA I (Homo sapiens, UniProt P00915). Nature of the series: Stopped flow CO2 hydrase assay, hCA I inhibition. The series is classed as biochemical.
hCA I, sequence (P00915 whole entry): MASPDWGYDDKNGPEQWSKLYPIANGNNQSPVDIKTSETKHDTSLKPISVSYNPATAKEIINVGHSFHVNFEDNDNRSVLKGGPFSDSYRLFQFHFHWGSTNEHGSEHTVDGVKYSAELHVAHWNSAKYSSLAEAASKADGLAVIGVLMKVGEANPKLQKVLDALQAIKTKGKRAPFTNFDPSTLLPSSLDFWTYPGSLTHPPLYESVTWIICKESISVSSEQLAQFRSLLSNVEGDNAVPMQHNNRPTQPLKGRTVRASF
A further series concerns the target hCA XII (Homo sapiens, UniProt O43570). Description: Stopped flow CO2 hydrase assay, hCA XII inhibition. In kind it is biochemical. The settings on record: stopped flow technique; incubation time of 6 h; mean from 3 different assays; read-out: KI CA XII.
In series [3] the test system is MCF-7 breast cancer cell line. Nature of the series: MTT antiproliferative assay under hypoxic conditions. In kind it is cell-based. The settings on record: Homo sapiens, MCF7, hypoxic conditions (CoCl2), 48 h exposure, mean ± SD of three experiments. As to the method:
2. Anti-proliferative action toward human breast cell line
The examined human breast cancer cell line (MCF-7) has been obtained from American Type Culture Collection (ATCC). Cells line was maintained as monolayers in Dulbecco’s Modified Eagle’s Medium (DMEM) supplemented with 10% FBS, 2 mM L-glutamine, 100 U/ml penicillin and 100µg/ml streptomycin sulfate. Cobalt (II) chloride (CoCl2) was utilized as an inducer of HIF-1α to furnish a chemically-induced hypoxia. Cells were sub-cultured with trypsine /EDTA solution, counted with haemocytometer and plated onto 96-well plates (5000 cells/well) and left overnight to form a semi-confluent monolayer. Cell monolayers were treated in quadrates with […]
for an exposure time of 48 h. At the end of exposure, MTT solution in PBS (5 mg/ml) was then added to all well including no cell blank and left to incubate for 90 min. The formation of formazan crystals were visually confirmed using phase contract microscopy. DMSO (100 µl/well) was added to dissolve the formazan crystals with shaking for 10 min after which the absorbance was read at […]

The next series concerns the target hCA IX (Homo sapiens, UniProt Q16790). Description: Stopped flow CO2 hydrase assay, hCA IX inhibition. In kind it is biochemical. The note with it: stopped flow technique; incubation time of 6 h; mean from 3 different assays; read-out: KI CA IX.
In the next series the target is hCA II (Homo sapiens, UniProt P00918). Description: Stopped flow CO2 hydrase assay, hCA II inhibition. The note with it: stopped flow technique; incubation time of 6 h; mean from 3 different assays; read-out: KI CA II. In kind it is biochemical.
Where [4] appears, read: stopped flow technique, incubation time of 6 h, mean from 3 different assays, read-out: KI CA I.

hCA XII, sequence (O43570 25-354): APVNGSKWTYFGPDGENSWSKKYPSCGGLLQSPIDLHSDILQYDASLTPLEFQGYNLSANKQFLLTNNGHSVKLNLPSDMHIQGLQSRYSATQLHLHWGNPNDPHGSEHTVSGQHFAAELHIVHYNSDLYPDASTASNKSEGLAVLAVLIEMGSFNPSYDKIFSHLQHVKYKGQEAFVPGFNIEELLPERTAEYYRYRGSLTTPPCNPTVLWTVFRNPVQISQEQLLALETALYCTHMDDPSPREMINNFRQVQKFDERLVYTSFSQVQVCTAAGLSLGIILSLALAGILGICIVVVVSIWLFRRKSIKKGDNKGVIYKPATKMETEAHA

As to `O=C(CN1C(=O)SC(=Cc2cccs2)C1=O)c1cc2ccccc2oc1=O` [11a, 3–(2-Oxo-2–(2-oxo-2H-chromen-3-yl)ethyl)-5-(thiophen-2-ylmethylene)thiazolidine-2,4-dione], the “Apoptosis Total” value in series [1] (MCF-7, AV-FITC/PI positive stained cells) is 29.93%. Moreover, the “Apoptosis Early” value in series [1] (MCF-7, AV-FITC/PI, lower right quadrant) is 4.23%. Further, the “total increase in apoptotic cells relative to the control” value in series [1] (MCF-7, AV-FITC/PI) came out at 57 folds. For the same compound, in series [1] (MCF-7, AV-FITC/PI, upper left quadrant), the Necrosis was found to be 17.39%. In series [1] (MCF-7, AV-FITC/PI, upper right quadrant), the “Apoptosis Late” value was found to be 25.7%. Besides, in series [2], the “decrease in G2-M phase compared to the control” value worked out at 2.6 folds and the “increase of cell population at Sub-G1 compared to the control” value worked out at 19.7 folds. For the same compound, the inhibitory constant (Ki) on hCA I is above 100000 nM.

For `O=C(CN1C(=O)SC(=Cc2cccs2)C1=O)c1cc2cc(Br)ccc2oc1=O` [11c, 3–(2-(6-Bromo-2-oxo-2H-chromen-3-yl)-2-oxoethyl)-5-(thiophen-2-ylmethylene)thiazolidine-2,4-dione], the melting point was in the range of 255 to 257 °C. On hCA XII, the inhibition constant Ki is 440 nM. Further, in series [3], the 50% inhibitory concentration (IC50) was found to be 9560 ± 560 nM. Also, the inhibitory constant (Ki) on hCA IX is 590 nM. Besides, the Ki at hCA I (setting [4]) is above 100000 nM. For the same compound, the Ki on hCA II was above 100000 nM.

Take `Cc1ccc(C=C2SC(=O)N(CC(=O)c3cc4cc(Br)ccc4oc3=O)C2=O)o1` [11d, 3–(2-(6-Bromo-2-oxo-2H-chromen-3-yl)-2-oxoethyl)-5-((5-methylfuran-2-yl)methylene)thiazolidine-2,4-dione]: the melting point fell in the range of 236 to 238 °C. Besides, the Ki at hCA XII turned out to be 820 nM. The IC50 in series [3] was 1650 ± 100 nM. The Ki on hCA IX stood at 910 nM. On hCA I (setting [4]), the Ki was above 100000 nM. On hCA II, the Ki was above 100000 nM.
